# Experimental data taken from patent US20070148136A1, “Methods of using ammonia oxidizing bacteria” (priority 2003, published 2007).
# Entries after “also recorded” stand apart in the source; their conditions may differ. Read-outs that look alike come from different tables or passages of the source.
# T1: ammonia monooxygenase (Nitrosomonas europaea, UniProt Q04507+Q04508)
# T1 construct: endogenous in cells; host or cells: autotrophic ammonia oxidizing bacteria (AAOB), mixed and unspecified, e.g. in waste water
# T1 sequence (Q04507 1-276): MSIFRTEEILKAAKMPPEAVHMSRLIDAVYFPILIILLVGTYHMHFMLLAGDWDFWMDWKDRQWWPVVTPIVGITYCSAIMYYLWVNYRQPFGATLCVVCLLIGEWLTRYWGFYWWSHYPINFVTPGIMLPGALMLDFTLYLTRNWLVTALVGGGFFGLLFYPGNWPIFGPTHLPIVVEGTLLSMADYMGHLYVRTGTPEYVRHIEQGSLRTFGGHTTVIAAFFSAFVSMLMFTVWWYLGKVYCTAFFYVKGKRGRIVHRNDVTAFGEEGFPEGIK
# T1 sequence (Q04508 26-420): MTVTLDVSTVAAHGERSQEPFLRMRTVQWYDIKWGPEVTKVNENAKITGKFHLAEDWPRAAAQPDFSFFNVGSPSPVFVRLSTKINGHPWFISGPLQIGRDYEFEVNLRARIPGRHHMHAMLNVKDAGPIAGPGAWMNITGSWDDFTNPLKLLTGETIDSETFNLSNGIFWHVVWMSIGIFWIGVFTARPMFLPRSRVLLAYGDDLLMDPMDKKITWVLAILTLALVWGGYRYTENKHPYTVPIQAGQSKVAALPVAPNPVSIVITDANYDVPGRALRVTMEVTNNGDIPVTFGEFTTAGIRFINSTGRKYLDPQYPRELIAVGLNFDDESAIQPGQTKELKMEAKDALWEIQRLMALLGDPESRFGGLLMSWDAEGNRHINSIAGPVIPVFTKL
# T2: guanylyl cyclase (GC) (Homo sapiens, UniProt Q02153)
# T2 construct: Soluble Guanylyl Cyclase, in Intact Cerebellar Cells; host or cells: intact cerebellar cells (endogenous)
# T2 sequence (Q02153 1-619): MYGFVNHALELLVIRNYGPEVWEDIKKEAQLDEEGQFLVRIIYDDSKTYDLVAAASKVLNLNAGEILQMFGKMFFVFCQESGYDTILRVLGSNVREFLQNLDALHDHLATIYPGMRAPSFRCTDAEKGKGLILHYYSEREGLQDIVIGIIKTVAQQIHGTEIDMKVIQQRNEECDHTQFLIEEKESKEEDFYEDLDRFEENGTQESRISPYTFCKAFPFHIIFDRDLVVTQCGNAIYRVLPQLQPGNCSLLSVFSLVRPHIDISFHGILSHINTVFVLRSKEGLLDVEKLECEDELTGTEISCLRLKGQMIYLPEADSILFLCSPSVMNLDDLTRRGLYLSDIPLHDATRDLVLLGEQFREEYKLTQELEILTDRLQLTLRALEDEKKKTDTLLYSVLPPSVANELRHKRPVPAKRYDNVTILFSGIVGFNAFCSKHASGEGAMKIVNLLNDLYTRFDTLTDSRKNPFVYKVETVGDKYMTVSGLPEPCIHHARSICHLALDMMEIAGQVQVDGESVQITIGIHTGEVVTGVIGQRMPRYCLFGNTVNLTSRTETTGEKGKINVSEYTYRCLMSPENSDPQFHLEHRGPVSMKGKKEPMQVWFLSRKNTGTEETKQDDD
# T2 sequence (Q02108 1-690 partner): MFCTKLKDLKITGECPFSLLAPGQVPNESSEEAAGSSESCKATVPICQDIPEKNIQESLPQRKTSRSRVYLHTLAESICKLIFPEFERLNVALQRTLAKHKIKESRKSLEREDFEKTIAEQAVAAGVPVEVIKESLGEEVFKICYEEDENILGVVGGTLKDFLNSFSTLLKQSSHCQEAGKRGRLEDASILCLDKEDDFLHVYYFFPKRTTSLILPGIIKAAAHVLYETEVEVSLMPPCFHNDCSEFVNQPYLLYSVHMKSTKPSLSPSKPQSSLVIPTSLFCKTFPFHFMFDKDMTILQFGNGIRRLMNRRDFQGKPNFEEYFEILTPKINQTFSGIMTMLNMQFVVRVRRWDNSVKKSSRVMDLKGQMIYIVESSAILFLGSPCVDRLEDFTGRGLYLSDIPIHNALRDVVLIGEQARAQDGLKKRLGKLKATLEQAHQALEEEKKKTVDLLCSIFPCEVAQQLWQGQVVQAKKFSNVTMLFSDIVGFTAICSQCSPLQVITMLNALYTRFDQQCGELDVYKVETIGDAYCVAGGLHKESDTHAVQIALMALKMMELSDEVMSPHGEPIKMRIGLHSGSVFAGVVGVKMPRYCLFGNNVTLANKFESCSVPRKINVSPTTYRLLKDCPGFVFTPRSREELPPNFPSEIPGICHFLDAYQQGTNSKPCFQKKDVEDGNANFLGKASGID
# B1: CP: ceruloplasmin, the main Cu containing serum protein (protein, UniProt P00450 20-1065, looked up)
# Ceruloplasmin: KEKHYYIGIIETTWDYASDHGEKKLISVDTEHSNIYLQNGPDRIGRLYKKALYLQYTDETFRTTIEKPVWLGFLGPIIKAETGDKVYVHLKNLASRPYTFHSHGITYYKEHEGAIYPDNTTDFQRADDKVYPGEQYTYMLLATEEQSPGEGDGNCVTRIYHSHIDAPKDIASGLIGPLIICKKDSLDKEKEKHIDREFVVMFSVVDENFSWYLEDNIKTYCSEPEKVDKDNEDFQESNRMYSVNGYTFGSLPGLSMCAEDRVKWYLFGMGNEVDVHAAFFHGQALTNKNYRIDTINLFPATLFDAYMVAQNPGEWMLSCQNLNHLKAGLQAFFQVQECNKSSSKDNIRGKHVRHYYIAAEEIIWNYAPSGIDIFTKENLTAPGSDSAVFFEQGTTRIGGSYKKLVYREYTDASFTNRKERGPEEEHLGILGPVIWAEVGDTIRVTFHNKGAYPLSIEPIGVRFNKNNEGTYYSPNYNPQSRSVPPSASHVAPTETFTYEWTVPKEVGPTNADPVCLAKMYYSAVEPTKDIFTGLIGPMKICKKGSLHANGRQKDVDKEFYLFPTVFDENESLLLEDNIRMFTTAPDQVDKEDEDFQESNKMHSMNGFMYGNQPGLTMCKGDSVVWYLFSAGNEADVHGIYFSGNTYLWRGERRDTANLFPQTSLTLHMWPDTEGTFNVECLTTDHYTGGMKQKYTVNQCRRQSEDSTFYLGERTYYIAAVEVEWDYSPQREWEKELHHLQEQNVSNAFLDKGEFYIGSKYKKVVYRQYTDSTFRVPVERKAEEEHLGILGPQLHADVGDKVKIIFKNMATRPYSIHAHGVQTESSTVTPTLPGETLTYVWKIPERSGAGTEDSACIPWAYYSTVDQVKDLYSGLIGPLIVCRRPYLKVFNPRRKLEFALLFLVFDENESWYLDDNIKTYSDHPEKVNKDDEEFIESNKMHAINGRMFGNLQGLTMHVGDEVNWYLMGMGNEIDLHTVHFHGHSFQYKHRGVYSSDVFDIFPGTYQTLEMFPRTPGIWLLHCHVTDHIHAGMETTYTVLQNEDTKSG
# Key:
# [1] = system: NO synthesis; details: in vivo; cited from earlier work
# [2] = system: NOS; details: in vivo; cited from earlier work
# [3] = hyperbaric O2; cited from earlier work
# [4] = type 2 diabetics; cited from earlier work
# [5] = system: NOS; details: chronic inhibition of NOS; cited from earlier work
# [6] = system: NOS; details: horse, cited from earlier work
# [7] = system: NOS; details: chronic inhibition of NOS; cited from earlier work; remark: listed apart in the source
# [8] = compared with estrogen; cited from earlier work
# [9] = system: AAOB; details: cited from earlier work
# [10] = system: Human Mast Cell Adhesion; details: cited from earlier work
# [11] = system: local brachial artery vasodilatation; details: bolus infusion, cited from earlier work
# [12] = system: local brachial artery vasodilatation; assay: Local brachial artery vasodilatation after bolus infusion (Rassaf et al.); assay type: in vivo, human; details: for relative effectiveness (intravenous NO : SNP : GSNO): ratio, intravenous NO = 1
# Protocol: SNP has also been compared to intravenous NO, where intravenous NO, SNP, and S—NO-glutathione (GSNO) were shown by Rassaf et al. to have relative “maximally effective doses” administered as bolus infusions in local brachial artery vasodilatation of 6 μM, 34 nM, and 5 nM respectively. (Rassaf et al., Evidence for in vivo transport of bioactive nitric oxide in human plasma, J. Clin. Invest. 109:1241-1248 (2002).) This puts the relative effectiveness of intravenous NO, SNP, and GSNO at 1:176:1200. There were significant differences in the temporal course of vasodilatation induced through the above treatments. […] Thus GSNO is roughly 7 times more “effective” at getting “NO active species” to peripheral GC than is SNP. Presumably then, a dose of about 0.1 μM/kg/hr of GSNO would have a vasodilatation effect equivalent to 0.75 μM/kg/hr SNP. The basal nitrate excretion is about 1 μM/kg/hr. If we assume that the vasodilatory effects of 0.75 μ/kg/hr SNP are on the “same order” as the indigenous NO already produced, then the 0.1 μkg/hr GSNO represents an increase in “effective NO” of […] over basal levels.
# [13] = biological target: T1, ammonia monooxygenase; details: cited from earlier work
# [14] = biological target: T2, guanylyl cyclase (GC); details: read-out: apparent EC50 for guanylyl cyclase activation, cited from earlier work
# [15] = inhaled NO at 80 ppm in >90% O2 (16 μM/min=14 μM/kg/hr); cited from earlier work
# [16] = system: N. mobilis; details: cited from earlier work
# [17] = system: N. europaea; details: cited from earlier work
# [18] = system: Nitrosospira sp. strain AV; details: cited from earlier work
# [19] = system: N, multiformis; details: cited from earlier work
# [20] = system: murine macrophage cells (RAW264); details: CP 2 μM/L in Krebs-Ringer-phosphate, absence of hemoglobin; cited from earlier work
# [21] = physiologic concentrations of CP; cited from earlier work
molecule,measurement,setting,value
"NC(=NCCC[C@H](N)C(=O)O)N[N+](=O)[O-] [L-NNA, N-nitro-L arginine]",reduction in basal temperature following hypoxia,[1],greatly diminished
same,wake-sleep differences in cerebral blood flow,[2],abolishes wake-sleep differences in cerebral blood flow
N=C(N)NCCC[C@H](N)C(=O)O [L-arginine],latency to seizure,[3],increase the latency to seizure
same,forearm blood flow,[4],increases forearm blood flow
same,insulin sensitivity,[4],increases insulin sensitivity
"COC(=O)[C@@H](N)CCCNC(=N)N[N+](=O)[O-] [L-NAME, N(G)-nitro-L-arginine methyl ester]",total (pancreatic islet) NO production,[5],can increase NO levels at particular sites; also recorded: increases total pancreatic islet NO production
same,VCO2max,[6]; L-NAME group (control 62.5),61.0 L/min
same,reduction of cardiac output,[6]; L-NAME group,12%
same,fibrosis of heart and kidneys,[7],generalized fibrosis of the heart and kidneys
O=[N+]([O-])OCC(CO[N+](=O)[O-])O[N+](=O)[O-] [nitroglycerin],prevention of bone loss,[8],as effective as estrogen to prevent bone loss
linear alkylbenzene sulfonates [LAS],toxicity to AAOB,[9],toxic to AAOB at ppm levels
same,toxicity to AAOB,[9]; listed as linear alkyl benzene sulfonate detergents,killed by ppm levels
"N[C@@H](CCC(=O)N[C@@H](CSN=O)C(=O)NCC(=O)O)C(=O)O [GSNO, S-nitrosoglutathione]",mast cell adhesion,[10],strongly down regulated
same,"maximally effective dose, local brachial artery vasodilatation",[11],0.005 µM
same,effectiveness at getting NO active species to peripheral GC relative to SNP,[12]; GSNO versus SNP,roughly 7 times
same,relative effectiveness (intravenous NO : SNP : GSNO),[12],1200
S-nitroso-N-acetylpenicilamine [SNAP],latency to seizure,[3],significantly shortens
C=CCNC(N)=S [Allylthiourea],inhibition of ammonia monooxygenase,[13],very effective at inhibiting ammonia monooxygenase
"[N]=O [NO, nitric oxide]",EC50,[14]; rapid (˜100 ms) activation,~45 nM
same,EC50,[14]; slow (˜1 to 10 sec) activation,~20 nM
same,change in mean arterial pressure,[15],no change in mean arterial pressure
same,"maximally effective dose, local brachial artery vasodilatation",[11]; intravenous,6 µM
same,relative effectiveness (intravenous NO : SNP : GSNO),[12],1
CCCCCCCCCCC(C)c1ccc(S(=O)(=O)O)cc1 (centres unmarked) [4-(2-dodecyl)benzenesulfonic acid],50% inhibitory concentration (IC50),[16],3 µg/mL (ppm)
same,50% inhibitory concentration (IC50),[17],5 µg/mL (ppm)
same,50% inhibitory concentration (IC50),[18],1 µg/mL (ppm)
same,50% inhibitory concentration (IC50),[19],1 µg/mL (ppm)
B1,conversion of authentic NO to RSNO (recovered NAC—NO),[20],≤ 33%
same,increase in formation of GSNO from NO and GSH,[21],approximately 100 times
